Source: PMC6459586, “Structure-Based Design of MptpB Inhibitors That Reduce Multidrug-Resistant Mycobacterium tuberculosis Survival and Infection Burden in Vivo” (Journal of Medicinal Chemistry, 2018)
≈ marks a conversion by molar mass, not a printed value.

Columns and labels:
MptpB = MptpB (Mycobacterium tuberculosis, UniProt I6WXK4); experiment: biochemical; design: species or system M. tuberculosis
[1] = Pharmacokinetic evaluation in guinea pigs; format: in vivo; conditions: guinea pig; for AUCinf / Cmax: in vivo, po; for t1/2: oral, dose mg/kg: 13 8, 5 5, 8 3.5, 9 5
Description: Guinea pig males (Durkin Hartley) were used to evaluate the pharmacokinetics and tissue distribution of compounds. The route of administration was either intraperitoneal (ip) or oral (po) with dosage varying from 3.5 to 8 mg kg^–1 (op) and 2.5–4 mg kg^–1 (ip). In each case 4 samples were collected per time point at 0.1, 0.5, 2, 4, and 8 h post dose for ip and 0.25, 0.5, 2, 4, and 8 h post dose for po. Compounds were prepared in 10% DMSO, 5% Cremaphor, and 85% physiological saline for IP administration or 0.5% (v/v) Tween 80, 99.5% (v/v) 0.5% methylcellulose for oral administration. Tissue samples (n = 4) from lung, liver, and kidney were collected at the end of the study and snap frozen prior to bioanalysis.

physchem = format: physicochemical; conditions: for logD: pH 7.4
Description: (§1) C = (CD(t) × VD) + (CA(t) × VA )
(§2) % Mass Retention = 1 − (CD(t) × VD) + (CA(t) × VA)
(§3) A = Filter Area, VD = Donor Well Volume, VA = Acceptor Well Volume, t = incubation time (secs), CA(t) = Acceptor concentration at time t, CD(t) =Donor concentration at time t, C0 = Initial Donor concentration.
(§4) No Permeability is reported for compounds where % Mass Retention exceeds 50%.
(§5) ADME determinations for compounds in Suppl. Table 2 (Data kindly supplied by […]
(§6) The chemicals used in the assay were supplied by Sigma Aldrich. Briefly, 30 µL of a 20 mM stock solution of the compound to test was added to a vial containing 1. 5 mL of pH 7.4 phosphate buffer saturated octanol and 1.5 mL of octanol saturated pH 7.4 phosphate buffer. The vial was then shaken on a reciprocating shaker at 125 rpm for 40 min.
(§7) Following centrifugation to ensure phase separation, the concentration of the compound in both the octanol and buffer phases was measured by LC -UV. The Log D was then calculated as the Log of ratio of the concentration of compound in the octanol phase to that in the […]
(§8) 1 mL of buffer was added to 1.0 mg of compound and then incubated for 24 hr (Bioshake iQ, 650 rpm, 25 °C). Following filtration under positive pressure, the concentration of compound in solution was assessed by LC -UV in comparison to the response for a kno wn […]
(§9) A known concentration of drug in plasma (20 µM) was dialysed against phosphate buffer for 18 hr at 37 °C. The concentration of compound in the protein-containing and protein-free sides of the dialysis plate were determined by LC-MS/MS. The methodology uses either 100% plasma or plasma diluted with phosphate buffer. The routine operation of the assay employed 10% plasma diluted with phosphate buffer to enable the detection of highly bound compounds. Results were corrected to reflect the result if diluted plasma was […]
(§10) Briefly, monolayer integrity was measured before the assay was initiated measuring the transepithelial electrical resistance values (Ω). Compound was added to either apical (A) or basolateral (B) chamber at a final concentration of 10 µM and after 2 hr incubation at 37 °C, an aliquot from the opposite side of the monolayer was removed and quantified by LC-MS/MS. The apparent permeability (P app) was calculated using Equation 6 :
(§11) Papp [cm.s-1] = (V/(A.C i)) × (Cf/T) Eq.6
(§12) Where V = volume of recipient chamber (mL), A = surface area of membrane insert (cm2), Ci = initial concentration of compound (µM), Cf = final concentration of compound (µM), T = assay time (s). Efflux ratio = Papp B to A / Papp A to B.

in vitro [2] = format: in vitro ADME, canine; conditions: dog, MDCK
Description: as §1, §2, §3, §4, §5, §6, §7, §8, §9, §10, §11, §12

[3] = format: in vitro ADME; conditions: human, microsomes, 1 µM
Description: Data analysis was performed using Excel (Microsoft, USA).
Human liver microsomes were commercially obtained (Invitrogen, USA). All microsomes were stored at -80 °C. Liver microsomal stability studies were performed manually using the substrate depletion approach, drug was incubated at 37 °C with human liver microsomes (0.5 mg.mL-1) at a final substrate concentration of 1 µM. Aliquots were removed from the incubation at 0, 5, 15, 30 and 45 min and the reaction was terminated by adding to ice-cold organic solvent. Compound concentrations were determined by LC-MS/MS analysis. The natural log of the percentage of compound remaining was plotted against each time point and the slope determined. The half-life (t1/2) and CLint were calculated using Equations 1 and 2, respectively.
CLint (µL.min-1.mg-1) = (LN(2)/t1/2(min))*1000/microsomal protein (mg.mL-1)a Eq. 2 a or cell density (106 cells.mL-1) or P450 concentration (pmol.mL-1)
Percentage liver blood flow (%LBF) was determined by dividing Cl by liver blood flow (20.7 mL/min/kg). Data analysis was performed using Excel (Microsoft, USA).

in vitro [4] = format: in vitro ADME; conditions: plasma
Description: as §1, §2, §3, §4, §5, §6, §7, §8
A known concentration of drug in plasma (20 µM) was dialysed against phosphate buffer for 18 hr at 37 °C. The concentration of compound in the protein-containing and protein-free sides of the dialysis plate were determined by LC-MS/MS. The methodology uses either 100% plasma or plasma diluted with phosphate buffer. […]
as §10, with “: […]” for “:”

M. tuberculosis H37Rv = experiment: Acute guinea pig model of TB infection; format: in vivo; conditions: 28 days of treatment, oral daily, 13 100 mg/kg, RIF 50 mg/kg
M. tuberculosis = format: in vivo, guinea pig
[5] = chronic model, 28 days of treatment from day 28, oral daily, 13 100 mg/kg, RIF 50 mg/kg

MptpB, sequence (I6WXK4 whole entry, looked up): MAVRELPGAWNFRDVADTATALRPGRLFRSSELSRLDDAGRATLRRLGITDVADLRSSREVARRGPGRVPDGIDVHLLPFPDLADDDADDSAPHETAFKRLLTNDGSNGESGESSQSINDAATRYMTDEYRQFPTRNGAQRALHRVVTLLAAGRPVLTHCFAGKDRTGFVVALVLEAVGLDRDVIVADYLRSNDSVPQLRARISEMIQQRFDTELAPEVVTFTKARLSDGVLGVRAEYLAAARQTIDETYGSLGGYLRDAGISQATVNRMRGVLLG

SMILES | AUCinf [1] | Cmax [1] | t1/2 [1] | solubility at 24 h (physchem) | logD (physchem) | Papp at 2 h, 10 µM (in vitro [2]) | HLM CLint (% LBF) [3] | fraction unbound at 18 h, 20 µM (in vitro [4]) | further results
O=C(O)c1cc(-c2ccccc2)on1 [Compound 1, 5-Phenylisoxazole-3-carboxylic Acid] |  |  |  |  |  |  |  |  | IC50 (MptpB; IC50 (molecular formula strings csv)): > 500 µM; IC50 (MptpB; IC50 MptpB): > 500 µM
O=C(O)c1noc(-c2ccccc2)c1-c1cccc(-c2cc(Cl)c(O)c(Cl)c2)c1 [Compound 5, 4-(3′,5′-Dichloro-4′-hydroxy-3-biphenyl)-5-phenylisoxazole-3-carboxylic Acid] | BLQ | BLQ | BLQ | 1180 µg/mL (≈ 2.78 mM) | 0.84 | 0.8 ×10⁻⁶ cm/s | 31 % LBF |  | 
O=C(O)c1noc(-c2ccccc2)c1-c1cccc(-c2cc(Cl)cc(Cl)c2)c1 [Compound 8, 4-(3′,5′-Dichoro-3-biphenyl)-5-phenylisoxazole-3-carboxylic Acid] | BLQ | BLQ | BLQ |  |  |  |  |  | 
Cc1cc(-c2cccc(-c3c(C(=O)O)noc3-c3ccccc3)c2)cc(C)c1O [Compound 9, 4-(3′,5′-Dimethyl-4′-hydroxy-3-biphenyl)-5-phenylisoxazole-3-carboxylic Acid] | BLQ | BLQ | BLQ | > 1250 µg/mL | 1.37 | 5.8 ×10⁻⁶ cm/s | 36.4 % LBF | 0.001 | 
O=C(O)c1noc(-c2ccccc2)c1-c1cccc(-c2ccc(O)c(Cl)c2)c1 [Compound 10, 4-(3′-Chloro-4′-hydroxy-3-biphenyl)-5-phenylisoxazole-3-carboxylic Acid] |  |  |  | > 1250 µg/mL | 1.3 | 3.3 ×10⁻⁶ cm/s | 33 % LBF | 0.001 | efflux ratio at 2 h, 10 µM (in vitro [2]): 0.8
O=C(O)c1noc(-c2ccccc2)c1-c1cccc(-c2ccc(O)c(F)c2)c1 [Compound 11, 4-(3′-Fluoro-4′-hydroxy-3-biphenyl)-5-phenylisoxazole-3-carboxylic Acid] |  |  |  | > 1250 µg/mL | 0.67 | 2.7 ×10⁻⁶ cm/s | 47.7 % LBF | 0.002 | efflux ratio at 2 h, 10 µM (in vitro [2]): 0.7
CO[C@H]1/C=C/O[C@@]2(C)Oc3c(C)c(O)c4c(O)c(c(/C=N/N5CCN(C)CC5)c(O)c4c3C2=O)NC(=O)/C(C)=C\C=C\[C@H](C)[C@H](O)[C@@H](C)[C@@H](O)[C@@H](C)[C@H](OC(C)=O)[C@@H]1C [RIF, rifampicin, reference compound] |  |  |  |  |  |  |  |  | Lungs infection burden, average (M. tuberculosis H37Rv): BLQ; Spleen infection burden, average (M. tuberculosis H37Rv): BLQ; Lungs infection burden, average (M. tuberculosis; [5]): 3.7 log CFU; Lungs log reduction relative to vehicle (M. tuberculosis; [5]): 2.0 log; Spleen infection burden, average (M. tuberculosis; [5]): BLQ; Spleen log reduction relative to vehicle (M. tuberculosis; [5]): > 5.0 log; Lungs weight % change relative to Vehicle (M. tuberculosis; guinea pig, in vivo): -29%; Lungs weight, average (M. tuberculosis; guinea pig, in vivo): 3.8 g; Spleen weight % change relative to Vehicle (M. tuberculosis; guinea pig, in vivo): -73%; Spleen weight, average (M. tuberculosis; guinea pig, in vivo): 0.7 g
